# Experimental data: patent US5108916A, “Process for stereoselectively hydrolyzing, transesterifying or esterifying with immobilized isozyme of lipase from Candida rugosa” (priority 1989, dated 1992)
# Where two headings read alike, the source gives them in different places.
# Columns and labels:
# [1] = Conversion of ketoprofen esters in organic solvent/oleic acid media; type: biochemical
# Experimental: To optimize the organic solvent used in the presence of oleic acid a variety of organic solvents were used, along with a variety of ketoprofen esters. In this experiment, 50 mg of ketoprofen esters were weighed into flasks, along with 1 ml of oleic acid and 9 ml of an organic solvent. The flasks were capped and incubated at 35° C., 250 rpm, for 10-26 hours before stopping the reaction by first adding 4 ml CHCl3 to solubilize the substrates and products, then filtering through a 0.2 um Gelman Nylaflo filter. Samples were then diluted in methanol and analyzed by HPLC as in Example 18. The experiment was also performed using 200 ul of oleic acid and 10ml buffer, which was acidified, extracted with CHCl3 and analyzed by HPLC as above.
# One ml of oleic acid was added, as was 9 ml of buffer (100 mM (NH4)H2 PO4, pH 5.5) or organic solvent. Flasks were placed into a 35° C. incubator and shaken at 250 rpm for 13 hours. Reaction was stopped by adding 5 ml CHCl3 to solubilize the organic material and filtering the solutions using 0.2 um Gelman Nylaflo membranes to remove the enzyme. Samples were analyzed on an ODS-3 RAC column using CH3 OH:10 mM (NH4)H2PO4 (60:40) as eluant, flow rate 4 ml/min, and detection at 254 nm. %ee was determined by the resolution of diastereomeric amides on the above HPLC system, as per Example 18.
# Lipase MY = assay: Two phase Lipase MY hydrolysis of HPPA-Me in organic solvent/water mixtures; type: biochemical, Candida rugosa
# Experimental: A. 75% organic solvent/25% aqueous buffer--Fifty milligrams of R,S-HPPA-Me was combined in 10 ml Scintillation vial with 7.5 ml of organic solvent, 2.5 ml of 50 mM phosphate buffer pH 6.0, and 5 mg Lipase MY. The reactions were placed on shaker and shaken for a period of 0-43 hours with samples being taken at various times.
# B. 25% organic solvent/75% aqueous buffer--Fifty milligrams of R,S-HPPA-Me was combined, in 10 ml Scintillation vial with 2.5 ml of organic solvent, 7.5 ml 50mM phosphate buffer (pH 6.8), and 5 mg Lipase MY. The reactions were shaken for a period of 0-143 hours with samples being taken at various time points.
# The data in Table 2 represents the % conversion and % R-HPPA produced using the indicated organic solvents in a two-phase system wherein 75% […] of the total vehicle (solvent) was water and the balance (25%) was organic solvents.
# CSC-2 = assay: Effect of additives and solvents on hydrolysis of ketoprofen monoglyceride by CSC-2; type: biochemical, Candida rugosa; settings: solvent/buffer 1:1 two phase, 26 hours; for Relative Rate: buffer = 100
# Experimental: Hydrolysis of ketoprofen-monoglyceride (50mg) was carried out in various DMF-100mM (NH4)H2 PO4 buffer (pH 5.5) mixtures. In each flask a solution of ketoprofen monoglyceride (50mg) in DMF (200ul) was added. DMF was added followed by 100mM (NH4)H2 PO4 buffer. […] After 22 hours, 2%, 5%, and 10% DMF samples were acidified, extracted with CHCl3 (2×10ml) and analyzed. The other samples were analyzed directly as in Example 18. The acid produced decreases with increasing amount of DMF.
# Small amounts of DMF were added to the reaction mixture to increase the solubility of KPG. In all cases 100mM ammonium phosphate buffer (pH 5.5) was used and 2% (v/v) detergents were added and the total volume was 10ml.
# The buffer reaction (entry #2 in the table) contained enzyme in buffer (2 ml) and the buffer only (entry #1 in the table) reaction contained no enzyme.
# The presence of a surfactant like Tween increases the solubility o lipophilic compounds in water. […] Tween 80 was added to make 1% and 2% solution (v/v). Bovine serum albumin (BSA) (10mg) was added to each of two flasks. A solution of 50mg of ketoprofen monoglyceride in 200ul DMF was added to each. After 20 hours at 250 rpm and 35° C. the reaction mixtures were acidified, extracted and analyzed by the usual HPLC procedure as in Example 18.
# Various surfactants were used at 2% of the reaction volume to determine their effect on the enzymatic reaction involving the conversion of ketoprofen monoglyceride (KPG) to ketoprofen (KP). […] Flasks were covered with parafilm and incubated in a 35° C. water bath at 250 rpm, typically overnight. Reactions were stopped by acidification, extracted with CHCl3 (2×10 ml). The %acid and %ee were determined by the method of Example 18. It is to be noted that Hydrophile-Lipophile Balance (HLB) values have no apparent bearing on the ability of the surfactant to enhance the conversion of KPG to KP.
# 75 mg of KPG (in the absence of DMF) was individually weighed into 50 ml Erlenmeyer flasks. […] 9 ml of 100 mM (NH4)H2 PO4, pH 5.5 buffer was added, and the flasks were placed into a 35° C., 250 rpm water bath incubator for 20 hours. The reactions were acidified, extracted with CHCl3 and examined by HPLC as in Example 18. The %ee was determined as per Example 18.
# Various amounts of oleic acid or its esters were added, and the reactions stopped at the times indicated, acidified, extracted with CHCl3 and analyzed as in Example 18.
# An experiment was performed as in Example 41, but using 100, 200 and 500 ul of olive oil to determine if it would enhance the rate of conversion of KPG to KP. […] After 20 hours, all reactions were acidified, extracted with CHCl3 and analyzed by HPLC as in Example 18. The results are given below:
# 50 mg of KPG was weighed into Erlenmeyer flasks. […] Flasks were incubated at 35° C., 250 rpm for 23 hours. The reactions were stopped by acidification, extracted with CHCl3, and analyzed by HPLC as in Example 18. The additive is listed along with its percentage composition of glycerides of oleic acid.
# To determine the problems associated with having oleic acid or oleate. esters in the reaction media, the following experiment was performed. […] Flasks were placed in a 35° C. incubator at 250 rpm, and the reactions were sampled by taking 200 ul aliquots at various time points. These aliquots were analyzed by HPLC (ODS-3 RAC column, CH3 OH: 10 mM (NH4)H2 PO4 (60:40) eluant, 4 ml/min, 254 nm detection) to determine the course of reaction. When approximately 40% acid was produced, the reactions were stopped by placing the flasks in the -70° C. freezer. Two extraction procedures were utilized to determine the best method of isolating S-Ketoprofen free of oleic acid. The first (listed as Extraction Procedure I in the following table) involved first making the solution basic (pH 10) with NaOH, then extracting with hexane, then CHCl3.
# [2] = Buffer 10 ml, OA 200 ul, enzyme not named in Example 55
# [3] = Hexane 9 ml, OA 1 ml, 10-26 hours
# [4] = Isooctane 9 ml, OA 1 ml, * stopped at 10 Hr
# [5] = KPG 50 mg, 100 mg CSC-2 on silica (279-SD-1), 9 ml solvent (or buffer)/1 ml oleic acid, 13 hours
compound,measurement,setting,value
COC(=O)C(C)c1cccc(C(=O)c2ccccc2)c1 (centres unmarked) [Methyl ester],% ee,"[1]; Buffer 10 ml, OA 200 ul",96%
same,% Acid,[1]; [2],2%
same,% Acid,"[1]; CHCl3 9 ml, OA 1 ml",0%
same,% Acid,[1]; [3],0.8%
same,% Acid,"[1]; Isooctane 9 ml, OA 1 ml",2%
same,% ee,[1]; [4],93%
same,% Acid,"[1]; Toluene 9 ml, OA 1 ml",0%
"CC(C(=O)OCC(O)CO)c1cccc(C(=O)c2ccccc2)c1 (centres unmarked) [Monoglyceride Ester, ketoprofen monoglyceride]",% ee,"[1]; Buffer 10 ml, OA 200 ul",96%
same,% Acid,[1]; [2],26%
same,% Acid,"[1]; CHCl3 9 ml, OA 1 ml",0%
same,% Acid,[1]; [3],47%
same,% ee,"[1]; Hexane 9 ml, OA 1 ml, * stopped at 10 Hr",97%
same,% Acid,"[1]; Isooctane 9 ml, OA 1 ml",31%
same,% ee,[1]; [4],96%
same,% Acid,"[1]; Toluene 9 ml, OA 1 ml",0%
CC(C)=O [acetone],% R,Lipase MY,0%
same,Conversion (ester/acid),Lipase MY,0%
ClC(Cl)(Cl)Cl [carbon tetrachloride],% R,"Lipase MY; solvent 25%, 2.7 hr",79%
same,Conversion (ester/acid),"Lipase MY; solvent 25%, 2.7 hr",58%
same,% R,"Lipase MY; solvent 75%, 2.7 hr",76%
same,Conversion (ester/acid),"Lipase MY; solvent 75%, 2.7 hr",61%
same,EE of S-acid,CSC-2,95%
same,Relative Rate,CSC-2,48
CC(C)c1ccccc1 [cumene],% R,"Lipase MY; solvent 25%, 2.7 hr",100%
same,Conversion (ester/acid),"Lipase MY; solvent 25%, 2.7 hr",35%
same,EE of S-acid,CSC-2,86%
same,Relative Rate,CSC-2,91
C1CCCCC1 [cyclohexane],% R,"Lipase MY; solvent 25%, 2.7 hr",100%
same,Conversion (ester/acid),"Lipase MY; solvent 25%, 2.7 hr",35%
same,% R,"Lipase MY; solvent 75%, 2.7 hr",83%
same,Conversion (ester/acid),"Lipase MY; solvent 75%, 2.7 hr",31%
same,% Acid,"[1]; KPEG 50 mg, as E212",29%
same,% ee S-acid,"[1]; KPEG, as E212",83%
same,% Acid,[1]; [5],38%
same,% ee S-acid,"[1]; KPG, as E212",98%
same,EE of S-acid,CSC-2,95%
same,Relative Rate,CSC-2,185
CCO [ethyl alcohol],Conversion (ester/acid),Lipase MY,0%
same,% R,"Lipase MY; solvent 25%, 43 hr",0%
same,% R,"Lipase MY; solvent 75%, 43 hr",0%
Fc1ccccc1 [fluorobenzene],% R,"Lipase MY; solvent 25%, 5.3 hr",95%
same,Conversion (ester/acid),"Lipase MY; solvent 25%, 5.3 hr",40%
same,% R,"Lipase MY; solvent 75%, 5.3 hr",86%
same,Conversion (ester/acid),"Lipase MY; solvent 75%, 5.3 hr",29%
ClC(Cl)=C(Cl)Cl [tetrachloroethylene],% R,"Lipase MY; solvent 25%, 5.3 hr",83%
same,Conversion (ester/acid),"Lipase MY; solvent 25%, 5.3 hr",61%
same,% R,"Lipase MY; solvent 75%, 5.3 hr",85%
same,Conversion (ester/acid),"Lipase MY; solvent 75%, 5.3 hr",58%
same,% Acid,"[1]; KPEG 50 mg, as E212",0%
same,% ee S-acid,"[1]; KPEG, as E212",0%
same,% Acid,[1]; [5],1%
same,% ee S-acid,"[1]; KPG, as E212",0%
same,EE of S-acid,CSC-2,27%
same,Relative Rate,CSC-2,3
Cc1ccccc1 [toluene],% R,"Lipase MY; solvent 25%, 2.7 hr",100%
same,% R,"Lipase MY; solvent 75%, 2.7 hr",90%
same,Conversion (ester/acid),"Lipase MY; solvent 75%, 2.7 hr",25%
same,EE of S-acid,CSC-2,58%
same,Relative Rate,CSC-2,15
xylenes,% R,"Lipase MY; solvent 25%, 5.3 hr",100%
same,Conversion (ester/acid),"Lipase MY; solvent 25%, 5.3 hr",49%
same,% R,"Lipase MY; solvent 75%, 5.36 hr",89%
same,Conversion (ester/acid),"Lipase MY; solvent 75%, 5.36 hr",41%
same,EE of S-acid,CSC-2,81%
same,Relative Rate,CSC-2,44
